Results taken from patent publication US4855128A, “Saccharide inhibition of dental plaque” (priority 1988, dated 1989).
pIC50: −log10 of the molar value. Read-outs that look alike come from different tables or passages of the source.

System: A. viscosus Tl4V-S. sanguis 34 coaggregation
Assay: Coaggregation assay: inhibition of A. viscosus Tl4V-S. sanguis 34 coaggregation
Format: cell-based
Conditions: for Concentration to effect 50% inhibition of coaggregation: concentration in % (weight/volume basis); for Inhibition of coaggregation (in words): qualitative; for pIC50: read-out: Concentration to effect 50% inhibition of coaggregation; for Rebound of coaggregation on increasing concentration: at concentrations above the 50% inhibition concentration
Experimental: This Example describes an assay for determining the inhibition of coaggregation by various agents according to the invention and the results obtained thereby.
Streptococcus sanguis strain 34 (originally derived from human dental plaque), and Actinomyces viscosus Tl4V were grown in a medium containing the dialyzable portion of Trypticase and Yeast Extract, supplemented with salts and a carbon source, as follows: A concentrated stock solution (20×, to make 10 liters of growth medium) containing Trypticase Peptone (BBL, 170 grams) and Yeast Extract (40 grams) as prepared in a liter of distilled water. This solution was subsequently ultrafiltered in an Amicon model DC-2 hollow fiber ultrafiltration cell, using an HlP10-20 hollow fiber cartridge (molecular weight cut off of 10,000 daltons), and the filtrate (that material of <10,000 daltons molecular weight) saved. The material was concentrated to a final volume of approximately 100 ml, and then reconstituted to one liter, after which the procedure was repeated for a total of three cycles, saving the filtrates at each step. The filtrates were collected into a vessel chilled on ice, combined, and the total volume measured. This stock solution was distributed in aliquots sufficient to make one liter of medium, and stored at -20° C. until used.
To prepare the growth medium, the appropriate volume of the 10× stock Trypticase-Yeast Extract stock solution was thawed, and to it added (in grams per liter): NaCl, 5, and K2 HPO4, 2.5, and the volume adjusted to 1 liter with distilled water. The medium was sterilized by autoclaving. Where indicated, glucose was added as a carbon source to give a final concentration of 0.2%. Initially, this was done by aseptically adding filter-sterilized glucose solutions to the autoclaved medium. For later experiments, glucose was added to the growth medium prior to sterilization.
Streptococci were grown in medium containing 0.2% glucose. Starter cultures were prepared by inoculation from a frozen stock culture, and incubated overnight at 37° C. under aerobic (not anaerobic) conditions. This starter culture was used as a 0.5-1.0% inoculum to inoculate larger quantities of medium (100 ml-1 liter), which were subsequently incubated for 16 hours at 37° C. Growth conditions were similar for the actinomycete, except that they were grown under an anaerobic environment (10% hydrogen-5% carbon dioxide, and 85% nitrogen). The starter culture was incubated for 24-48 hours, but the larger cultures required 48 hours incubation.
After growth, the cells were collected by centrifugation (10,000 x g, 15 minutes, 4° C.) and washed three times in PBS (phosphate-buffered saline, 0.025 M, pH 8.0 containing 1.46g NaCl per liter). The cells were then suspended in PBS such that when the stock cell suspension was diluted 1:10, it would produce an Absorbance at 660 nm of between 0.22-0.24, equivalent to an initial Absorbance of 2.2-2.4. The cells were stored on ice for use during the day, but warmed to ambient temperature before initiation of coaggregation. Residual cells were stored for further use by resuspension in a solution of 50% glycerol in water, and stored at 4° C. On the day of use, the cells were then collected by centrifugation, washed twice with PBS, and the trubidity adjusted as described above.
Assays were performed in a final volume of 1.0 ml in 190×75 mm disposable culture tubes, in duplicate. Controls consisted of 0.8 ml of either cell suspension, and 0.2 ml PBS. The coaggregating mixtures contained 0.4 ml of each cell suspension, and PBS to make 1.0 ml. Inhibitors were added from stock solutions to give the desired final concentrations, and, where necessary, the salt concentrations adjusted using a double-strength (2X) PBS solution. The mixtures were mixed on a Vortex mixer for 10 seconds at a speed setting of 6, incubated at ambient temperature for 10 minutes, vortexed again, and allowed to stand for 2 hours. […]

[1] = average of two independent experiments

With Pectin the “Inhibition of coaggregation at 0.8%” value (at 0.8%) was about 50%, the “Concentration to effect 50% inhibition of coaggregation” value (“Concentration to effect 50% inhibition” for short) [1] was 0.8% and the “Inhibition of coaggregation (in words)” value was “substantial inhibition”.

OC[C@H]1O[C@H](O[C@H]2[C@H](O)[C@@H](O)[C@H](O)O[C@@H]2CO)[C@H](O)[C@@H](O)[C@@H]1O [Maltose, reference compound] showed a pIC50 (Actinomyces viscosus, 2 h) of under 1.00.

With Polygalacturonic acid the “Concentration to effect 50% inhibition” value [1] was 0.1%.

With Agarose [reference compound] the “Concentration to effect 50% inhibition” value [1] was over 0.2% and the “Inhibition of coaggregation (in words)” value was “did not demonstrate inhibition”.

N[C@H]1C(O)O[C@H](CO)[C@H](O)[C@@H]1O (stereo partly shown) [Galactoseamine, reference compound] was tested, and the pIC50 (Table 1 carbohydrates, 2 hours, ambient temperature, average of independent experiments in duplicate (lactose n=13, galactose n=6)) was 1.46.

Guar gum was tested, and the “Concentration to effect 50% inhibition” value [1] was 0.15%.

Work on O=C[C@H](O)[C@@H](O)[C@H](O)[C@H](O)CO [Glucose, reference compound] yielded a pIC50 (Actinomyces viscosus, 2 h) of under 1.00.

With C[C@H]1OC(O)[C@H](O)[C@@H](O)[C@H]1O (stereo partly drawn) [D-Fructose (6-deoxy-D-galactose), 6-deoxy-D-galactose, reference compound] the pIC50 (Actinomyces viscosus, 2 h) was 1.70.

In the case of Soluble starch [reference compound], the “Inhibition of coaggregation at 1.0%” value (at 1.0%, average of two independent experiments) was 8% and the “Inhibition of coaggregation (in words)” value was “poor inhibition”.

For OC[C@H]1O[C@@H](O[C@H]2[C@H](O)[C@@H](O)C(O)O[C@@H]2CO)[C@H](O)[C@@H](O)[C@H]1O (stereo partly shown) [Lactose, reference compound], the pIC50 (Actinomyces viscosus, 2 h) was 2.44.

O=C[C@H](O)[C@@H](O)[C@@H](O)[C@H](O)CO [Galactose, reference compound] was tested, and the pIC50 (Actinomyces viscosus, 2 h) was 1.66.

In the case of Agar [reference compound], the “Concentration to effect 50% inhibition” value [1] was over 0.2% and the “Inhibition of coaggregation (in words)” value was “did not demonstrate inhibition”.

Sodium alginate was tested, and the “Inhibition of coaggregation at 0.5%” value (at 0.5%, average of two independent experiments) was 32% and the “Inhibition of coaggregation (in words)” value was “substantial inhibition”.

OC[C@H]1OC(O)C[C@@H](O)[C@H]1O (stereo partly drawn) [2-deoxy-D-galactose, reference compound] was tested, and the pIC50 (Actinomyces viscosus, 2 h) was 1.70.

With OC[C@H]1O[C@@](CO)(O[C@H]2O[C@H](CO)[C@@H](O)[C@H](O)[C@H]2O)[C@@H](O)[C@@H]1O [Sucrose, reference compound] the pIC50 (Actinomyces viscosus, 2 h) was under 1.00.

OC[C@H]1O[C@@H](O[C@@H]2[C@@H](CO)OC(O)(CO)[C@H]2O)[C@H](O)[C@@H](O)[C@H]1O (mixture of isomers) [Lactulose, reference compound] showed a pIC50 (Actinomyces viscosus, 2 h) of 1.46.

In the case of O=C(O)[C@H](O)[C@@H](O)[C@H](O[C@@H]1O[C@H](CO)[C@H](O)[C@H](O)[C@H]1O)[C@H](O)CO [Lactobionic acid, 4-[beta-D-galactosido]-D-gluconic acid], the pIC50 (Actinomyces viscosus, 2 h) was 2.40 to 2.52, the “Rebound of coaggregation on increasing concentration” value was “then rebounds” and the “Rebound of coaggregation on increasing concentration” value (listed as lactobionic acid) was “rebound effect”. The “Inhibition of coaggregation at the higher concentration” value (concentration increased up to 100 mM) was 10%.

With O=C[C@H](O)[C@@H](O)[C@H](O)[C@H](O)C(=O)O [Glucuronic acid] the pIC50 (Actinomyces viscosus, 2 h) was 1.82 and the “Rebound of coaggregation on increasing concentration” value was “then rebounds”.

For Chondroitin sulfate, the “Inhibition of coaggregation at 4%” value (at 4%) was about 50%, the “Concentration to effect 50% inhibition” value [1] was 4% and the “Inhibition of coaggregation (in words)” value was “substantial inhibition”.

Molecule O=C[C@@H](O)[C@@H](O)[C@H](O)[C@H](O)CO [Mannose, reference compound] has a pIC50 (Actinomyces viscosus, 2 h) of under 1.00.

Work on OC[C@H]1O[C@H](O[C@H]2O[C@H](CO)[C@@H](O)[C@H](O)[C@H]2O)[C@H](O)[C@@H](O)[C@@H]1O [Trehalose, reference compound] yielded a pIC50 (Actinomyces viscosus, 2 h) of under 1.00.

In the case of Xanthan gum, the “Concentration to effect 50% inhibition” value [1] was 0.05%.
